Reference: patent publication US20230028293A1, “MULTIPLE MYELOMA COMBINATION THERAPIES BASED ON PROTEIN TRANSLATION INHIBITORS AND IMMUNOMODULATORS” (The Regents of the University of Colorado, a body corporate, priority 2019, published 2023)

How the values were obtained:
Assay type in all cases: cell-based
MM cell lines = experiment: Two-drug combination matrix in MM cell lines, ZIP synergy; conditions: for ZIP δ-score for synergy with omacetaxine: BET inhibitor with omacetaxine; for synergy of translation inhibitor with pomalidomide: MM.1S and H929 cells
[1] = tested on: protein translation in MM cell lines and primary MM cells; experiment: OP-Puro protein translation assay in vitro; conditions: omacetaxine 50 nM 2.5 h, bortezomib 6 h, 24 h, 48 h
Procedure: To examine whether myeloma cells depend on inherently high protein synthesis, the O-Propargyl-puromycin (OP-Puro) assay was used to measure the rate of amino-acid incorporation into translating ribosomes by flow cytometry.
Protein synthesis levels were determined in vitro utilizing the puromycin analog O-propargyl-puromycin (OP-Puro) in the protein synthesis assay kit (Cayman Chemical) according to manufacturer instructions. For in vivo protein synthesis, engrafted NSG mice were injected IP with 500 μg puromycin (Gibco), then euthanized after 1.5 h, marrow was flushed, and cells stained with anti-puromycin antibody (12D10, Alexa-488, Millipore Sigma), followed by flow cytometry.

MM1.S cells = experiment: Timecourse of apoptosis and cell death by Annexin V and DAPI flow cytometry
Source text: FIG. 2A depicts the timecourse of induction of apoptosis and cell death by omacetaxine in MM1.S cells as measured by Annexin V and DAPI staining by flow cytometry.
FIG. 10A depicts the timecourse of induction of apoptosis and cell death by pomalidomide in MM1.S cells as measured by annexin V and DAPI staining by flow cytometry.

CCS(=O)(=O)Nc1ccc(Oc2ccc(F)cc2F)c(-c2cn(C)c(=O)c3[nH]ccc23)c1 [ABBV-075] was tested, and the “ZIP δ-score for synergy with pomalidomide” value (MM cell lines; ABBV-075 with pomalidomide, MM.1S cell line) was 6.597 and the “ZIP δ-score for synergy with omacetaxine” value (MM cell lines; MM.1S cell line) was 12.02.
In the case of Cc1sc2c(c1C)C(c1ccc(Cl)cc1)=N[C@@H](CC(=O)OC(C)(C)C)c1nnc(C)n1-2 [JQ1], the “ZIP δ-score for synergy with omacetaxine” value (MM cell lines; MM.1S cell line) is reported as 17.56 and the “ZIP δ-score for synergy with pomalidomide” value (MM cell lines; JQ1 100 nM with pomalidomide 1.25 μM, U266, 96 h) is reported as 21.18.
For Cc1sc2c(c1C)C(c1ccc(Cl)cc1)=N[C@@H](CC(=O)Nc1ccc(O)cc1)c1nnc(C)n1-2 [OTX015], the “ZIP δ-score for synergy with omacetaxine” value (MM cell lines; MM.1S cell line) was 7.64 and the “ZIP δ-score for synergy with pomalidomide” value (MM cell lines; OTX015 with pomalidomide, MM cell lines) was 1.84.
With COc1ccc(C[C@H]2NC[C@H](O)[C@H]2OC(C)=O)cc1 [anisomycin] the “synergy of translation inhibitor with pomalidomide” value (“synergy of translation inhibitor” for short) (MM cell lines) was “synergistic”.
In the case of CC(C)C[C@H](NC(=O)[C@H](Cc1ccccc1)NC(=O)c1cnccn1)B(O)O [bortezomib], the “ability to inhibit translation in myeloma cell lines” value [1] is reported as “did not occur” and the “ability to inhibit translation in myeloma cell lines” value ([1]; listed as Boitezomib) is reported as “did not change translation levels”.
With C[C@@H]1C[C@@H]([C@H](O)CC2CC(=O)NC(=O)C2)C(=O)[C@@H](C)C1 [cycloheximide] the “synergy of translation inhibitor” value (MM cell lines) was “synergistic”.
In the case of C/C(=C\[C@H](C)C(=O)C[C@H](O)CC1CC(=O)NC(=O)C1)[C@@H]1OC(=O)/C=C/CC/C=C/C=C\[C@@H]1C [lactimidomycin], the “synergy of translation inhibitor” value (MM cell lines) is reported as “synergistic”.
For Nc1cccc2c1C(=O)N(C1CCC(=O)NC1=O)C2=O (stereo not shown) [pomalidomide], the “time at which cell death began” value (MM1.S cells) was 24 h and the “time at which induction of apoptosis started” value (MM1.S cells) was 24 h.
